Here are results for eight compounds from patent publication US20230159445A1, “STAT INHIBITORY COMPOUNDS AND COMPOSITIONS” (JANPIX LIMITED, priority 2020, published 2023).

The test system of data set [1] is normal human fibroblast (NHF) cells. Description: NHF Cell Cytotoxicity Assay (CellTiter-Blue, 72 h), off-target effects. It counts as cell-based. Conditions: Homo sapiens, Fibroblast; pooled NHF cells. The gist of the method:
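Normal human fibroblasts (1×10^4/well, 10% FBS medium) were treated after 24 h with inhibitor at 0.097656-50 μM for 72 h at 37° C. Viability was read by CellTiter-Blue fluorescence (560/590 nm), normalized to DMSO control, and IC50 obtained from a variable-slope log(inhibitor)-response fit of four replicates.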

A further data set has as its system MV4-11 cells. Description: MV4-11 Cell Cytotoxicity Assay (CellTiter-Blue, 72 h). The format is cell-based, human. Particulars: Homo sapiens, MV4-11; MV-4-11 cells. An outline of the steps: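 Cells seeded 24 h before treatment, then exposed 72 h at 37° C, 5% CO2 to inhibitors in triplicate, top concentration 50 μM with 1:2 serial dilutions (0.5% DMSO vehicle). Viability read by CellTiter-Blue fluorescence at 560/590 nm after 1 h.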

Another data set concerns glutathione (GSH). As to the kind of experiment: Reactivity Profiling with Glutathione (GSH), half-life by HPLC. Particulars: 5 mM glutathione (GSH) in IMDM with 10% FBS.

Take `COc1cc(C(=O)O)ccc1N(Cc1cc(C2CC2)cc(C(C)(C)C)c1)C(=O)CN(Cc1ccc(F)cc1Cl)S(=O)(=O)c1c(F)c(F)c(F)c(F)c1F` [Compound 1143, 4-(N-(3-(tert-butyl)-5-cyclopropylbenzyl)-2-(N-(2-chloro-4-fluorobenzyl)-(2,3,4,5,6-pentafluorophenyl)sulfon-amido)acetamido)-3-methoxybenzoic acid]: the IC50 (in general, the midpoint of a concentration-inhibition curve) in data set [1] lay within 10000 to 20000 nM; with MV4-11 cells, 0.01 to 316 nM. Further, in the data set on glutathione (GSH), the half-life (commonly the time in which the quantity being followed falls by half) at 25 μM fell in the range of 4.12 to 9.23 h.

Consider `COc1cc(C(=O)O)ccc1N(Cc1cc(C2CC2)cc(C(C)(C)C)c1)C(=O)CN(Cc1c(F)cccc1F)S(=O)(=O)c1c(F)c(F)c(F)c(F)c1F` [Compound 1145, 4-(N-(3-(tert-butyl)-5-cyclopropylbenzyl)-2-(N-(2,6-difluorobenzyl)-(2,3,4,5,6-pentafluorophenyl)sulfon-amido)acetamido)-3-methoxybenzoic acid], for which the half-maximal inhibitory concentration (IC50) lay in the range of 1 to 10000 nM in data set [1] and 0.01 to 316 nM in the data set on MV4-11 cells. In the data set on glutathione (GSH), this compound gave a half-life at 25 μM of 2.37 to 4.12 h.

As to `COc1cc(C(=O)O)ccc1N(Cc1cc(C2CC2)cc(C2CC2)c1)C(=O)CN(Cc1cnccc1C(F)(F)F)S(=O)(=O)c1c(F)c(F)c(F)c(F)c1F` [Compound 1146, 4-(N-(3,5-dicyclopropylbenzyl)-2-(N-((4-(trifluoromethyl)pyridin-3-yl)methyl)-(2,3,4,5,6-pentafluoro-phenyl)sulfonamido)acetamido)-3-methoxybenzoic acid], the IC50 lay within 1 to 10000 nM in data set [1] and 316 to 1000 nM in the data set with MV4-11 cells. The compound further came in with a half-life at 25 μM with glutathione (GSH) of 0.00167 to 2.37 h.

For `COc1cc(C(=O)O)ccc1N(Cc1cc(C2CC2)cc(C2CC2)c1)C(=O)CN(Cc1c(F)cc(F)cc1F)S(=O)(=O)c1c(F)c(F)c(F)c(F)c1F` [Compound 1148, 4-(N-(3,5-dicyclopropylbenzyl)-2-(N-(2,4,6-trifluorobenzyl)-(2,3,4,5,6-pentafluoro-phenyl)sulfonamido)acetamido)-3-methoxybenzoic acid], the IC50 lay within 1 to 10000 nM in data set [1] and 0.01 to 316 nM in the data set on MV4-11 cells. In the data set with glutathione (GSH), this compound showed a half-life at 25 μM of 2.37 to 4.12 h.

On to `O=C(O)c1ccc(N(Cc2cc(C3CC3)cc(C3CC3)c2)C(=O)CN(Cc2ncccc2C(F)(F)F)S(=O)(=O)c2c(F)c(F)c(F)c(F)c2F)c(OC2CC2)c1` [Compound 1164, 3-cyclopropoxy-4-(N-(3,5-dicyclopropylbenzyl)-2-(N-((3-(trifluoromethyl)pyridin-2-yl)methyl)-(2,3,4,5,6-pentafluoro-phenyl)sulfonamido)acetamido)benzoic acid], for which the values for the IC50 (in data set [1]; in the data set with MV4-11 cells) were 20000 to 30000 nM and 316 to 1000 nM, respectively. The same compound returned a half-life at 25 μM with glutathione (GSH) of 4.12 to 9.23 h.

With `COc1cc(C(=O)O)ccc1N(Cc1cc(C2CC2)cc(C2CC2)c1)C(=O)CN(Cc1ccc(F)cc1Cl)S(=O)(=O)c1c(F)c(F)c(F)c(F)c1F` [Compound 1166, 4-(2-(N-(2-chloro-4-fluorobenzyl)-(2,3,4,5,6-pentafluorophenyl)sulfon-amido)-N-(3,5-dicyclopropylbenzyl)acetamido)-3-methoxybenzoic acid], the IC50 in data set [1] lay in the range of 1 to 10000 nM; with MV4-11 cells it was 0.01 to 316 nM. In addition, the half-life at 25 μM with glutathione (GSH) was 2.37 to 4.12 h.

On to `O=C(O)c1ccc(N(Cc2cc(C3CC3)cc(C3CC3)c2)C(=O)CN(Cc2ccc(F)cc2Cl)S(=O)(=O)c2c(F)c(F)c(F)c(F)c2F)c(OC2CC2)c1` [Compound 1167, 4-(2-(N-(2-chloro-4-fluorobenzyl)-(2,3,4,5,6-pentafluorophenyl)sulfon-amido)-N-(3,5-dicyclopropylbenzyl)acetamido)-3-cyclopropoxybenzoic acid], for which the half-inhibitory concentration (IC50) in data set [1] fell in the range of 10000 to 20000 nM; in the data set on MV4-11 cells, 0.01 to 316 nM. This compound yielded a half-life at 25 μM in the data set with glutathione (GSH) of 4.12 to 9.23 h.

For the compound `O=C(O)c1ccc(N(Cc2cc(C3CC3)cc(C3CC3)c2)C(=O)CN(Cc2c(F)cc(F)cc2F)S(=O)(=O)c2c(F)c(F)c(F)c(F)c2F)c(OC2CC2)c1` [Compound 1178, 3-cyclopropoxy-4-(N-(3,5-dicyclopropylbenzyl)-2-(N-(2,4,6-trifluorobenzyl)-(2,3,4,5,6-pentafluoro-phenyl)sulfonamido)acetamido)benzoic acid], the results for the IC50 (in data set [1]; with MV4-11 cells) were 10000 to 20000 nM and 0.01 to 316 nM, respectively. The compound further had a half-life at 25 μM in the data set on glutathione (GSH) of 4.12 to 9.23 h.
